# Data: article PMC11251168, “Effect of ABCB1 most frequent polymorphisms on the accumulation of bictegravir in recombinant HEK293 cell lines” (Scientific Reports, 2024)
# Where a name gives a salt, the structure may show the parent alone.
# How the values were obtained:
# [1] = system: ABCB1 (HEKWT, HEK1199A, HEKCGT, HEKTTT, HEKcontrol); assay: Model functionality assay: Rhodamine123 intracellular fluorescence with or without zosuquidar; format: cell-based, human; details: Rh123 5 μM, 90 min
# Procedure: 0.05 × 10^6 cells were seeded on poly-l-lysine coated 96-well plates and incubated overnight. The next day, Rh123 and zosuquidar dilutions were prepared from a stock solution. Cells were incubated for 90 min at 37 °C in the presence of Rh123 at 5 μM. The effect of ABCB1 inhibition was assessed by preincubation of the cells for 15 min with zosuquidar at a concentration of 0.2 μM. After incubation with Rh123, the supernatants were discarded. The cells were washed two times with ice-cold PBS. Sterile water was then added and detachment and lysis were performed through scratching of the well’s surface followed by sonication. Finally, fluorescence of Rh123 was analyzed by an iD3 Spectramax (Molecular Devices) fluorometer (c.1199G > A model validation) or a M3 Spectramax (Molecular Devices) fluorometer (haplotype model validation); excitation wavelength was set at 485 nm and emission at 530 nm. The solution was then used for protein quantification for results normalization.
# Statistical analyses were carried out using GraphPad Prism version 9.5.1 for Mac OS X (GraphPad Software). For the functional assays, protein normalized intracellular fluorescences were compared after log-transformation using the natural logarithm (Ln), when required. Comparison was performed using a two-way ANOVA (α = 0.05) followed by a post-hoc analysis testing the effect of the inhibitor, with Bonferroni correction for multiple testing. For the intracellular bictegravir accumulation experiments, triplicates were performed during each experiment, and each experiment was performed thrice. For each experiment, protein normalized bictegravir intracellular concentrations were reported as fold-change of the mean of the protein normalized bictegravir intracellular concentration observed at the lowest bictegravir exposition concentration for HEKcontrol during the same experiment. Fold-change results from the three biological replicates were pooled and are shown on Figs. 3 and 4. Statistical analysis were performed on Ln transformed data that were pooled using the same principle as described here above. […]
# [2] = target: T1, ABCB1 1199A-1236C-2677G-3435C (Homo sapiens, UniProt P08183, S400N/S893A); assay: Intracellular bictegravir accumulation in HEK293 cells overexpressing ABCB1 1199A variant (HEK1199A); format: in vitro ADME; details: 2 h incubation, 0.25-5 mg/l, Fig. 3
# T1 construct: expressed in transfected cells; host or cells: HEK293 (ATCC), pcDNA3.1 plasmid, G418 selection
# T1 sequence (P08183 whole entry S400N/S893A): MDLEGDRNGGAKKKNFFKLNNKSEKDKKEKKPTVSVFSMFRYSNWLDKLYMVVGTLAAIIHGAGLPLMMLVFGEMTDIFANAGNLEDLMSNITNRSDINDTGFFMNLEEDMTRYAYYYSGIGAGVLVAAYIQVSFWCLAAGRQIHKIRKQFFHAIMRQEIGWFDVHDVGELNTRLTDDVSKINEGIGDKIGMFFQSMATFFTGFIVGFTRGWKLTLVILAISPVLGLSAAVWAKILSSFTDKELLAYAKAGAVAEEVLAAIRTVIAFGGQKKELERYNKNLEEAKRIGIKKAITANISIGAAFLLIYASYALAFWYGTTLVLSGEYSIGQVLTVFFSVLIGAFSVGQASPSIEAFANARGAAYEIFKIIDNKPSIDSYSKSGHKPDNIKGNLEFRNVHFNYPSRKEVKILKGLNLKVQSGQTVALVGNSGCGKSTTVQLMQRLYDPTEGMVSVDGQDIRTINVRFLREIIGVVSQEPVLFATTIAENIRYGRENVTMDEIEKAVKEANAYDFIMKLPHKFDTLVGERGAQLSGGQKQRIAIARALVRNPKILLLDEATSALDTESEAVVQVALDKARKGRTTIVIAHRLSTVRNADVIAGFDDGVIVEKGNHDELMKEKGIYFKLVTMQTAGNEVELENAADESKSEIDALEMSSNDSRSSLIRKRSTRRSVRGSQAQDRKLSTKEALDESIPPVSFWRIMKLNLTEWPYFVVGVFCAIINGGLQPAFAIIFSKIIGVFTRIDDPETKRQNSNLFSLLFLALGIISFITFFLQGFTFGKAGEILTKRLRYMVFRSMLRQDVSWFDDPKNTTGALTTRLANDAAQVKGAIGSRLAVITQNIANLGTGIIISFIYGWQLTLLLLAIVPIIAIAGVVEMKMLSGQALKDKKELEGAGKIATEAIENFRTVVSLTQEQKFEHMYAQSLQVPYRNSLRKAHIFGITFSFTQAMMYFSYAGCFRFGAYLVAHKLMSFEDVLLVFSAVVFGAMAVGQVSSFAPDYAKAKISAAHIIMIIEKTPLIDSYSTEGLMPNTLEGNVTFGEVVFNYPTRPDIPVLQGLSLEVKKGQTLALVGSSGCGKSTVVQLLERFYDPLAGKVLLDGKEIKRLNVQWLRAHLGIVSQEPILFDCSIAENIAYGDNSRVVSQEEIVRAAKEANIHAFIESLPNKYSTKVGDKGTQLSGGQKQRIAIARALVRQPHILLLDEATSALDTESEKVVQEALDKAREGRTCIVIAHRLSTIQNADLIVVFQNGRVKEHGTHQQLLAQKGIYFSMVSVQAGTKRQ
# Text: (§1) The generation and characterization of recombinant cell lines have been described in previous work conducted by our lab[26],[42]. Briefly, human embryonic kidney (HEK293) cells were purchased from American Type Culture Collection and transfected with plasmids carrying either wild-type ABCB1 1199G-1236C-2677G-3435C (thereafter named HEKWT) or several ABCB1 variant combinations obtained using site-directed mutagenesis, 1199A-1236C-2677G-3435C (thereafter named HEK1199A), 1199G-1236C-2677G-3435T (thereafter named HEKCGT) and 1199G-1236T-2677T-3435T (thereafter named HEKTTT); or an empty vector (thereafter named HEKcontrol). […] This model has previously been extensively characterized using flow cytometry, Western blot, and fluorescence microscopy, and validated using reference substrates and inhibitors of ABCB1[26],[42]. […]
# (§2) 0.7 × 10^6 cells were seeded on poly-l-lysine-coated 12-well plates and incubated overnight. […] Cell suspensions were centrifugated for 10 min at 10,500×g, 4 °C and 100 μl of the supernatant was transferred to a vial for bictegravir liquid chromatography-tandem mass spectrometry (LC–MS/MS) quantification. […] This mixed solution was used for protein quantification for results normalization.
# (§3) Bictegravir intracellular concentrations were determined using an adapted version of a previously published LC–MS/MS method on a Xevo TQS-micro tandem quadrupole mass spectrometer (Waters)[46]. […]
# [3] = target: T2, ABCB1 1199G-1236C-2677G-3435T (Homo sapiens, UniProt P08183, S893A); assay: Intracellular bictegravir accumulation in HEK293 cells overexpressing ABCB1 CGT haplotype (HEKCGT); format: in vitro ADME; details: 2 h incubation, 0.25-5 mg/l; Fig. 4
# T2 construct: expressed in transfected cells; host or cells: HEK293 (ATCC), pcDNA3.1 plasmid, G418 selection
# T2 sequence (P08183 whole entry S893A): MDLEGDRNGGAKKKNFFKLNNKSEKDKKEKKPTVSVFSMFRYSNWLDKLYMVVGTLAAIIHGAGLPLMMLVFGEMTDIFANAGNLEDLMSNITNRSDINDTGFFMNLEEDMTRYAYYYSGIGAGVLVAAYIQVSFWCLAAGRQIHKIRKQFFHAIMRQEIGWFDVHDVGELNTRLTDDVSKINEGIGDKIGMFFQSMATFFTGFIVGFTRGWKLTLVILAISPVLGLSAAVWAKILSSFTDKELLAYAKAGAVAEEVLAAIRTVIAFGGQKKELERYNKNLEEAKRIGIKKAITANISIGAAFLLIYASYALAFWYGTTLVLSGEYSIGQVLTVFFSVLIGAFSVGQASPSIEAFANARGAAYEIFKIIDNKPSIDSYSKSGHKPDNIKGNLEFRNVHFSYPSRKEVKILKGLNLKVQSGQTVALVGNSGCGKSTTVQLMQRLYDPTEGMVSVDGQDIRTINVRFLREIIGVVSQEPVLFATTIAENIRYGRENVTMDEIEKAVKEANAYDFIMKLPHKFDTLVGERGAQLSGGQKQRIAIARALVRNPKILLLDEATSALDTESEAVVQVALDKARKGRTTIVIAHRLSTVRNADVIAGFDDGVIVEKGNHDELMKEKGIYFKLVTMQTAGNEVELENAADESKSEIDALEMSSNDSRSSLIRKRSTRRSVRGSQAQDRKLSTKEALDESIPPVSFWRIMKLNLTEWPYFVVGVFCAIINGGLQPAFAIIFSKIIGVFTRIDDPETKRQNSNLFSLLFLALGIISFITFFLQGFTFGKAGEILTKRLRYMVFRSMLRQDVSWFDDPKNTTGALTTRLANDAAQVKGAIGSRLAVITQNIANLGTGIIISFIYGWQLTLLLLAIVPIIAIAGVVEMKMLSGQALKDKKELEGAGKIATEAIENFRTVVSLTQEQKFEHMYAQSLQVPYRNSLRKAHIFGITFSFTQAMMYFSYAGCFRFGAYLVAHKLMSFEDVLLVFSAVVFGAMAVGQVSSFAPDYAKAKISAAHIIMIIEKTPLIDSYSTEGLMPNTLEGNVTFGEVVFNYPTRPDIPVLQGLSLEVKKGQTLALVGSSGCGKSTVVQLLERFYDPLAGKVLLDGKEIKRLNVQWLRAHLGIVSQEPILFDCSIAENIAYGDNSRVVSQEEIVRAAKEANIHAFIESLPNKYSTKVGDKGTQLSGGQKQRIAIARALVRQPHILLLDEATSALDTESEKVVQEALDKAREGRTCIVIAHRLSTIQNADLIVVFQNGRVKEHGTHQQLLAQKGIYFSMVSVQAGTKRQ
# Text: as §1, §2, §3
# [4] = system: ABCB1 1199G-1236T-2677T-3435T; assay: Intracellular bictegravir accumulation in HEK293 cells overexpressing ABCB1 TTT haplotype (HEKTTT); format: in vitro ADME, human; details: 2 h incubation, 0.25-5 mg/l; Fig. 4
# Text: (§4) The generation and characterization of recombinant cell lines have been described in previous work conducted by our lab[26],[42]. Briefly, human embryonic kidney (HEK293) cells were purchased from American Type Culture Collection and transfected with plasmids carrying either wild-type ABCB1 1199G-1236C-2677G-3435C (thereafter named HEKWT) or several ABCB1 variant combinations obtained using site-directed mutagenesis, 1199A-1236C-2677G-3435C (thereafter named HEK1199A), 1199G-1236C-2677G-3435T (thereafter named HEKCGT) and 1199G-1236T-2677T-3435T (thereafter named HEKTTT); or an empty vector (thereafter named HEKcontrol). HEKCGT was selected, in addition to HEKWT (carrying the CGC haplotype) and HEKTTT, to test the potential impact of c.3435C > T variant. HEK293 cells feature low endogenous levels of expression of ABCB1, ensuring that ABCB1 expression originates almost exclusively from the transfection process. This model has previously been extensively characterized using flow cytometry, Western blot, and fluorescence microscopy, and validated using reference substrates and inhibitors of ABCB1[26],[42]. As the same cells were used, only flow cytometry and functional tests using reference substrates and inhibitors were used to re-characterize them.
# as §2
# (§5) Bictegravir intracellular concentrations were determined using an adapted version of a previously published LC–MS/MS method on a Xevo TQS-micro tandem quadrupole mass spectrometer (Waters)[46]. […] The following ion transitions were monitored: 450.1 > 289.1 for bictegravir and 453.2 > 289.2 for bictegravir-15N, d2.
# (§6) Total proteins were quantified in pellets using the BCA kit (Thermo Fisher Scientific) according to the manufacturer’s instructions. […]
# [5] = target: T3, ABCB1 1199G-1236T-2677T-3435T (Homo sapiens, UniProt P08183); assay: as above; format: in vitro ADME; details: 2 h incubation, 0.25-5 mg/l; Fig. 4
# T3 construct: expressed in transfected cells; host or cells: HEK293 (ATCC), pcDNA3.1 plasmid, G418 selection
# Text: as §4, §2, §5, §6
# [6] = parameters: method as in PMID 32868324, PMID 32199329; details: cited from earlier work
# [7] = system: human peripheral blood mononuclear cells; parameters: method as in PMID 36806669; details: cited from earlier work
# [8] = parameters: method as in PMID 36701274; details: cited from earlier work
# [9] = parameters: method as in PMID 32868324, PMID 32199329; details: cited from earlier work; remark: listed apart in the source
# [10] = parameters: method as in PMID 36701274; details: cited from earlier work; remark: listed apart in the source
# ABCB1 = system: ABCB1; parameters: method as in PMID 36701274; details: ABCB1-overexpressing MDCK II transfected cells compared with non-transfected cells; cited from earlier work
# [11] = parameters: method as in PMID 36701274; details: thought to be mainly due to passive diffusion; cited from earlier work
# [12] = target: T4, ABCB1 (wild-type, HEK1199G cells; HEKcontrol cells) (Homo sapiens, UniProt P08183, S893A); assay: Intracellular bictegravir accumulation with or without the ABCB1 inhibitor zosuquidar (Supplementary Fig. 2); format: in vitro ADME; details: bictegravir 2500 ng/mL, 120 min, zosuquidar 0.2 μM preincubation 15 min
# T4 construct: expressed in transfected cells; host or cells: HEK293 (ATCC), pcDNA3.1 plasmid, G418 selection
# T4 sequence (P08183 whole entry S893A): as above
# Procedure: 0.7x10^6 cells were seeded on poly-l-lysine-coated 12-well plates and incubated overnight. The next day, bictegravir and zosuquidar dilutions were prepared from a stock solution. Cells were incubated for 120 minutes at 37 °C (5% CO2) in the presence of bictegravir at 2500 ng/mL. The effect of ABCB1 inhibition was assessed by preincubation of the cells for 15 minutes with zosuquidar at a concentration of 0.2 μM. Subsequently, plates were then centrifuged for 3 min at 4 °C, and maintained on ice throughout the experiment to block drug efflux. Cells were washed twice with 1 mL […]
# Drug extraction was then performed as described in the Manuscript, in the Methods section describing Intracellular bictegravir accumulation experiments. Drug quantification and protein quantification were performed as described in the dedicated Methods sections.
# Reported statistical analysis: ANOVA-2 with post-hoc Bonferroni correction test, performed on log- […]
# (1 picture or pasted object on this page, not shown here)
# [13] = target: T5, ABCB1 wild-type 1199G-1236C-2677G-3435C (Homo sapiens, UniProt P08183, S893A); assay: Intracellular bictegravir accumulation in HEK293 cells overexpressing wild-type ABCB1 (HEKWT); format: in vitro ADME; details: 2 h incubation, 0.25-5 mg/l
# T5 construct: expressed in transfected cells; host or cells: HEK293 (ATCC), pcDNA3.1 plasmid, G418 selection
# T5 sequence (P08183 whole entry S893A): as above
# Text: as §1, §2, §3
# [14] = system: ABCB1 c.1199G > A variant; details: cited from earlier work
# PBMCs = assay: Preliminary clinical pharmacokinetic assessments of intracellular accumulation in PBMCs; format: in vivo
# [15] = system: ABCB1 c.1236C > T, c.2677G > T and c.3435C > T variants; details: cited from earlier work
# [16] = zosuquidar 0.2 μM, 15 min preincubation
smiles,measurement,setting,value
"COC(=O)c1ccccc1-c1c2ccc(=N)cc-2oc2cc(N)ccc12 [Rh123, Rhodamine123]",Rh123 intracellular fluorescence in cell lines overexpressing ABCB1 compared to HEKcontrol,"[1]; HEKWT, HEK1199A, HEKCGT and HEKTTT, without zosuquidar",significantly lower
O=C(NCc1c(F)cc(F)cc1F)c1cn2c(c(O)c1=O)C(=O)N1[C@H]3CC[C@H](C3)O[C@@H]1C2 [bictegravir],difference of bictegravir intracellular accumulation between HEKWT and HEK1199A,[2],did not show any significant difference
same,"bictegravir intracellular accumulation, HEK1199A versus HEKcontrol","[2]; protein-normalized, fold-change",significantly lower
same,"bictegravir intracellular accumulation, HEKCGT versus HEKcontrol",[3],significantly lower
same,"difference of bictegravir intracellular accumulation, HEKWT vs HEKCGT",[3],did not show any significant difference
same,"difference of bictegravir intracellular accumulation, HEKCGT vs HEKTTT",[4],did not show any significant difference
same,"difference of bictegravir intracellular accumulation, HEKWT vs HEKTTT",[4],did not show any significant difference
same,"bictegravir intracellular accumulation, HEKTTT versus HEKcontrol",[5],significantly lower
same,plasma protein binding,[6],high
same,accumulation into human peripheral blood mononuclear cells,[7],limited
same,biopharmaceutical classification system class,[8],class II
same,solubility (biopharmaceutical classification system),[8],low solubility
same,ratios of cerebrospinal fluid over plasma bictegravir concentrations,[9],low
same,permeability (biopharmaceutical classification system),[10],high permeability
same,transepithelial permeability,[10],High
same,transport by ABCB1,ABCB1,active transport
same,oral bioavailability,[11],high
same,"change of bictegravir intracellular accumulation in the presence of zosuquidar, HEK1199G cells",[12],significant increase
same,"bictegravir intracellular accumulation, HEKWT versus HEKcontrol","[13]; c.1199G > A experiments, protein-normalized, fold-change, Fig. 3",significantly lower
same,"bictegravir intracellular accumulation, HEKWT versus HEKcontrol","[13]; haplotype experiments, Fig. 4",significantly lower
Cc1nc(Nc2ncc(C(=O)Nc3c(C)cccc3Cl)s2)cc(N2CCN(CCO)CC2)n1 [dasatinib],effect of c.1199G > A variant on transport,[14],affect the transport
C[C@@H]1CCO[C@H]2Cn3cc(C(=O)NCc4ccc(F)cc4F)c(=O)c(O)c3C(=O)N12 [dolutegravir],intracellular accumulation in PBMCs compared to bictegravir,PBMCs,higher
Cc1ccc(NC(=O)c2ccc(CN3CCN(C)CC3)cc2)cc1Nc1nccc(-c2cccnc2)n1 [imatinib],"impact of c.1236C > T, c.2677G > T and c.3435C > T variants on anti-proliferative activity",[15],more pronounced effect
Cc1cn(-c2cc(NC(=O)c3ccc(C)c(Nc4nccc(-c5cccnc5)n4)c3)cc(C(F)(F)F)c2)cn1 [nilotinib],effect of c.1199G > A variant on transport,[14],affect the transport
C=CC[C@@H]1/C=C(\C)C[C@H](C)C[C@H](OC)[C@H]2O[C@@](O)(C(=O)C(=O)N3CCCC[C@H]3C(=O)O[C@H](/C(C)=C/[C@@H]3CC[C@@H](O)[C@H](OC)C3)[C@H](C)[C@@H](O)CC1=O)[C@H](C)C[C@@H]2OC [tacrolimus],impact of c.1199G > A variant on intracellular accumulation,[14]; same cellular model,significant impact
"O[C@@H](COc1cccc2ncccc12)CN1CCN([C@@H]2c3ccccc3[C@@H]3[C@H](c4ccccc42)C3(F)F)CC1 [zosuquidar, zosuquidar hydrochloride]","Rh123 intracellular fluorescence after pre-incubation with zosuquidar, cell lines overexpressing ABCB1",[1]; [16],increased to a level close to the level measured for HEKcontrol
same,effect of the inhibitor on Rh123 fluorescence in the HEKcontrol batch used for haplotype functional characterization,[1]; [16],small but significant effect
